Experimental data: patent US12251382B2, “Substituted amino-pyrimidine compound for use in a method for treatment and prevention of multiple sclerosis” (Merck Patent GmbH, priority 2018, dated 2025)
Where a name gives a salt, the structure may show the parent alone.

Columns and labels:
[1] = system: human patients suffering from relapsing multiple sclerosis (RMS); assay: Phase II RMS study: brain MRI (Gd+ T1 lesions, T2 lesions); assay type: in vivo; set-up: key to Gd+ T1 lesion rate (subject level), Median / Gd+ T1 Lesion rate, adjusted (negative binomial model): number of Gd+ T1 lesions per scan
Method: (§1) The assessing Investigator and central MRI reader were treatment blinded.
The protocol specified that subjects self-administered the IMP at a set time each day (every 12 hours ±2 hours). Subjects were to take their daily dose more than 1 hour prior to a meal or snack and more than 2 hours after a meal or snack. Clear fluids were allowed at any time. On trial visit days, the IMP was to be administered during the trial visit after the scheduled trial visit procedures (other than post-treatment PK/PD sampling) are completed.
Stratification occurred by region (USA or Western Europe, Eastern Europe and BTKO capable, Eastern Europe and not BTKO capable, and RoW). For the first 7 days, Tecfidera was administered orally at 120 mg twice daily. Following this and for the duration of treatment, Tecfidera was administered orally at 240 mg twice daily.
The protocol specified that MRI scans were to be performed at Screening, at 4-week intervals from Week 12 to 24, and at the End of Treatment Visit at Week 48 (including for subjects receiving Tecfidera who choose to enter the OLE Period). […] If a subject discontinued the study more than 4 weeks after his or her most recent MRI, the protocol specified that an MRI may be obtained at the 4-week Safety Follow-up Visit. The Screening MRI scan was to be acquired before randomization and dosing to allow for the readouts to be read by the central MRI reader (approximately 7 days).
Gadolinium was used to enhance T1-weighted lesions and to optimize clarity and accuracy of reporting. As gadolinium is excreted renally, subjects with acute renal insufficiency (eGFR <45 mL/min/1.73 m^2) will be excluded from the trial.
The protocol specified that brain MRI scans were performed according to a standardized imaging protocol before and after the administration of single-dose gadolinium. Images were assessed and reported by an independent, blinded, centralized MRI reading service, provided by NeuroRx Research. The assessment was performed in the absence of clinical information. Further details, including the scans required and the optimal MRI workflow, were provided in a separate Imaging Manual provided to each trial site by NeuroRx Research. All MRI images were reviewed and reported locally by a radiologist for safety. The local report was to contain only non-MS pathology and was to be provided to the Treating Investigator.
The primary endpoint was the total number of gadolinium-enhancing T1 lesions at Week 12, 16, 20, and 24. The primary analysis was a comparison of each evobrutinib dose arm versus placebo based on this endpoint, with a supportive test for dose-response. Secondary Endpoints
Other covariates were permitted to be considered. […] Descriptive statistics for the total number of Gd+ T1 lesions, at Week 12, 16, 20, and 24, are provided for each treatment group.
Estimation of mean per-scan number of Gd+ T1 lesions at Weeks 12, 16, 20, and 24, for each treatment group, was based on the NB model. In the analysis of each secondary endpoint, other covariates were permitted to be included in the model.
Primary and secondary efficacy endpoints were analysed based on the modified intention-to-treat (mITT) analysis set, consisting of all randomized patients with at least one available baseline and one post-baseline MRI assessment. […] For each endpoint, rate ratio (RR; null-hypothesis RR=1.0) adjusted for baseline disease activity was reported together with associated 95% CI and p-value. The T2 lesion endpoint was analysed similarly. Dose-response relationships between evobrutinib treatment dose and primary and key secondary endpoints were assessed for linear and monotonic trend. The analysis of CFB in cube root of volume of T2 lesions at Week 24 was based on a mixed-effect model for repeated measures, with fixed effects for treatment, week of visit, and treatment-by-week interaction, random effect for subject, and adjustment for baseline cube root of lesion volume. CFB in SF-36 score at Week 24 was analysed similarly. […]

[2] = system: human patients suffering from relapsing multiple sclerosis (RMS); assay: Phase II RMS study: qualified relapse assessment (ARR, relapse-free status); assay type: in vivo; conditions: open-label reference arm, 240 mg twice daily, Week 24
Method: as §1
Subjects were assessed for MS relapse at visits beginning at Week 4. Relapse was also assessed at any Unscheduled Visit for Neurological Worsening and Relapse Assessment. For subjects in the OLE Period, MS relapse was assessed at all visits. A qualifying relapse was defined as new, worsening or recurrent neurological symptoms attributed to MS that last for at least 24 hours without fever or infection, or adverse reaction to prescribed medication, preceded by a stable or improving neurological status of at least 30 days. The relapse must have been accompanied by new clinical signs (i.e., changes in the neurological examination or an increase in EDSS score).
The protocol specified that all cases of potential relapse were to be objectively confirmed by the Investigator regardless of whether they were identified during a scheduled or unscheduled visit. Any assessments needed to confirm the relapse were to be performed, and details of the relapse were to be documented within the relevant section(s) of the eCRF.
Additional Secondary Endpoints
Analysis of secondary endpoints was based on the mITT analysis set. […] Descriptive statistics for ARR were calculated for each treatment group as the total number of qualified relapses divided by the number of subject-years of observation.
(§2) Primary and secondary efficacy endpoints were analysed based on the modified intention-to-treat (mITT) analysis set, consisting of all randomized patients with at least one available baseline and one post-baseline MRI assessment. […] For each endpoint, rate ratio (RR; null-hypothesis RR=1.0) adjusted for baseline disease activity was reported together with associated 95% CI and p-value. The T2 lesion endpoint was analysed similarly. Dose-response relationships between evobrutinib treatment dose and primary and key secondary endpoints were assessed for linear and monotonic trend. The analysis of CFB in cube root of volume of T2 lesions at Week 24 was based on a mixed-effect model for repeated measures, with fixed effects for treatment, week of visit, and treatment-by-week interaction, random effect for subject, and adjustment for baseline cube root of lesion volume. CFB in SF-36 score at Week 24 was analysed similarly. Descriptive statistics were used to further describe the study outcomes.

[3] = system: human patients suffering from relapsing multiple sclerosis (RMS); assay: Phase II RMS study: HRQoL SF-36 Physical Component Summary score; assay type: in vivo; conditions: open-label reference arm, 240 mg twice daily
Method: Analysis of Primary Endpoint
as §2

[4] = Phase II RMS study: safety (adverse events, laboratory) over 24 weeks; assay type: in vivo; conditions: 240 mg twice daily, 24 weeks
Method: as §1
Safety profile of the IMP was assessed through the recording, reporting and analysis of baseline medical conditions; AEs; physical examination findings including vital signs, ECGs, and laboratory tests (including Ig and subclass concentration and B, NK, and T cell counts). Comprehensive assessment of any apparent toxicity experienced by each subject was performed from the time of giving informed consent and throughout the trial. The Investigator was to report any AEs, whether observed by the Investigator or reported by the subject.
Adverse Event: An AE was any untoward medical occurrence in a subject or clinical investigation subject administered a pharmaceutical product, regardless of causal relationship with this treatment. An AE could therefore be any unfavorable and unintended sign (including an abnormal laboratory finding), symptom, or disease temporally associated with the use of a medicinal product, whether or not considered related to the medicinal product.
The Investigator was required to grade the severity or toxicity of each AE. Investigators referenced the National Cancer Institute-Common Terminology Criteria for AEs (NCI-CTCAE), Version 4.03 (publication date: 14 Jun. 2010) a descriptive terminology provided in the Manual of Procedures that can be used for AE reporting.
A general grading (severity/intensity; hereafter referred to as severity) scale was provided at the beginning of the above referenced document, and specific event grades were also provided. Only if a particular AE's severity was not specifically graded by the guidance document, then the Investigator was to use the general NCI-CTCAE definitions of Grade 1 through Grade 5 following his or her best medical judgment. The 5 general grades are: • Grade 1 or Mild • Grade 2 or Moderate • Grade 3 or Severe • Grade 4 or Life-threatening • Grade 5 or Death.
Serious Adverse Events: An SAE is any untoward medical occurrence that at any dose: • Results in death. • Is life-threatening. (Note: The term “life-threatening” refers to an event in which the subject is at risk of death at the time of the event, not an event that hypothetically might have caused death if it was more severe) • Requires inpatient hospitalization or prolongs an existing hospitalization, except in the case of hospitalizations due to protocol-defined relapses. • Results in persistent or significant disability or incapacity. • Is a congenital anomaly or birth defect. • Is otherwise considered to be medically important.

[5] = therapeutic or supratherapeutic doses, thorough QT studies; cited from earlier work
[6] = open-label reference arm, 240 mg twice daily

| SMILES | Total Gd+ T1 lesions over 4 scans in an outlier patient ([1]; one patient of the open-label reference arm) | Change in volume of T2 lesions from baseline to week 24, Mean ± SD [1, 6] | Change in volume of T2 lesions from baseline to week 24, Median [1, 6] | Gd+ T1 lesion rate (subject level), Median [1, 6] | Gd+ T1 lesion rate (subject level; count per scan, weeks 12-24), Mean ± SD [1, 6] | Total Number of New or Enlarging T2 Lesions at Week 24, Mean ± SD [1, 6] | Total number of Gd+ T1 lesions at Weeks 12, 16, 20, 24, Mean ± SD [1, 6] | Total number of Gd+ T1 lesions at Weeks 12, 16, 20, 24, Median (min-max) [1, 6] | New or enlarging T2 lesion rate (subject level), Mean ± SD ([1]; open-label reference arm, 240 mg twice daily, Weeks 12-24) | Total number of Gd+ T1 lesions at Weeks 12, 16, 20, 24, Mean ± SD ([1]; open-label reference arm, 240 mg twice daily, listed as dimethyl fumarate) | Proportion of patients who qualified as relapse-free [2] | Unadjusted ARR [2] | Change in SF-36 PCS score from baseline to week 24, Mean ± SD [3] | Change in SF-36 PCS score from baseline to week 24, Median [3] | Change in SF-36 PCS score from baseline to week 24, Mean ± SD ([3]; listed as dimethyl fumarate) | TEAE: Infections and infestations [4] | TEAE: Urinary tract infection [4] | Prolongation of the QTc interval [5] |
| --- | --- | --- | --- | --- | --- | --- | --- | --- | --- | --- | --- | --- | --- | --- | --- | --- | --- | --- |
| COC(=O)/C=C/C(=O)OC [Dimethyl fumarate, dimethyl fumarate, reference compound] | 230 | 0.46 ± 2.97 cc | −0.02 cc | 0.0 | 1.45 ± 7.29 | 5.35 ± 16.67 | 5.78 ± 29.17 | 0 (0-213) | 1.54 ± 5.46 | 5.78 (±29.17) | 89% | 0.20 | 1.6 ± 5.17 | 1.7 | 1.6±5.17 | 7 (13.0) n (%) | 0 (0.0) n (%) |  |
| CC#CC(=O)N1CCC[C@H]1c1nc(-c2ccc(C(=O)Nc3ccccn3)cc2)c2c(N)nccn12 [acalabrutinib] |  |  |  |  |  |  |  |  |  |  |  |  |  |  |  |  |  | Neither ibrutinib nor acalabrutinib have been associated with clinically relevant prolongation of the QTc interval |
